Entries after “also recorded” stand apart in the source; their conditions may differ. Blank lines part the entries; values can stand above or below the compound they belong to.
Experiments:
[1] = test system: A-253 human head and neck squamous carcinoma cells; assay: MTT microculture growth inhibition assay, A-253 cells; assay type: cell-based; details: for IC50: cells exposed to drugs for 4 days, MTT, ± SEM of 16 or more determinations
Protocol: (§1) A-253 human head and neck squamous carcinoma cells were obtained from the American Type Culture Collection (Rockville, Md.) and were grown in McCoy's medium supplemented with 10% fetal bovine serum (Hyclone, Logan, Utah) as previously described. See, Lazo, J. S., et al., "Characteristics of Bleomycin-resistant Phenotypes of Human Cell Sublines and Circumvention of Bleomycin Resistance by Liblomycin," Cancer Res , 49: 185-190, (1989). The BLM-resistant (C-10E) cell line was derived from A-253 cells as previously described. Id., incorporated by reference herein, and was maintained in the continuous presence of 50 nM BLM. The revertant (C-10E^R) cells were obtained by growing C-10E cells in the absence of BLM for 3 months. Cell lines were maintained at 37° C. in a humidified incubator with 95% air, 5% CO2 atmosphere.
(§2) The effect of drugs on cellular proliferation was determined using the previously described MTT microculture assay. See, Twentyman, P. R., et al., "Study of Some Variables in a Tetrazolium Dye (MTT) Based Assay for Cell Growth and Chemosensitivity," Br. J Cancer, 56: 279-285, (1987). Exponentially growing cells were plated at a density of 2 to 4×10^3 cells per well in 100 μl volume into 96-well microtiter plates (Costar, Cambridge, Mass.). After 3 hours, various concentrations of drugs were added and the plates were incubated for 4 days at 37° C. under humidified 5% CO2 -95% air atmosphere. After 4 days, the medium was replaced with 100 μl of 1 mg/ml MTT in McCoy's medium, and cells were incubated with MTT solution in McCoy's medium for 3 hours at 37° C. Excess MTT was removed, the formazan generated was dissolved in 100 μl DMSO, and the absorbance at wavelength 540 nm was determined spectrophotometrically (Titertek Multiskan; Flow Labs, McLean, Va.). The drug concentrations required to inhibit cell growth by 50% (IC50) were then determined.

C-10E cells [2] = assay: MTT microculture growth inhibition assay, BLM-resistant C-10E cells; assay type: cell-based, human; details: for IC50: cells exposed to drugs for 4 days, MTT, ± SEM; for resistance index C-10E: ratio of IC50 for C-10E cells compared to the IC50 for A-253 cells; for fold resistance of C-10E cells: C-10E clone relative to A-253 cells
Protocol: as §1, §2

[3] = Fluorescent intensity and quantum yield in solution; assay type: physicochemical; details: for relative fluorescent units: 1 μM solutions
Protocol: Absorption spectra were obtained using a Perkin-Elmer (Lambda 2) UV/VIS spectrophotometer. Fluorescence spectra were obtained by using either a Perkin-Elmer 650-10S fluorescent spectrophotometer or a SPEX Fluorolog 2. Proton NMR spectra were recorded with a Bruker 300 MHz pulsed fourier transform spectrometer. The chemical shifts were determined with respect to internal standards: tetramethylsilane or 4-trimethylsilylpropanesulfonic acid.

C-10E^R cells [4] = assay: MTT microculture growth inhibition assay, revertant C-10E^R cells; assay type: cell-based, human; details: for resistance index C-10E ®: ratio of IC50 for C-10E ® cells compared to the IC50 for A-253 cells; for IC50: revertant cells, exposed to drugs for 4 days, MTT, ± SEM
Protocol: as §1, §2

[5] = test system: form I plasmid pGEM-3Z DNA; assay: DNA cleavage assay, agarose gel electrophoresis and densitometry; assay type: biochemical; details: for form I DNA remaining after 1 minute incubation: equipotent concentrations: TLM S10b 0.05 μM, FLM 0.62 μM
Protocol: The ability of various drugs to cause breakage of covalently closed circular DNA was determined using a slight modification of a previously described DNA cleavage assay. See, Lazo, J. S., et al, "Enhanced Bleomycin-induced DNA Damage and Cytotoxicity with Calmodulin Antagonists," Molec. Pharmacol., 27: 387-393, (1985). Metal-free FLM was first made by chelating the metal with dithizone using a previously described procedure. See, Roy, S. R., et al., "Chemical Synthesis of Radiolabeled Bleomycin A2 and its Binding to DNA," Cancer Res., 41: 4471-4477, (1981), incorporated by reference herein. […] The disappearance of form I DNA and the appearance of form II and form III DNA were assayed by gel electrophoresis with 1.2% agarose gels at room temperature for 15 h at 30 V in a buffer containing 40 mM Tris-acetate and 1 mM EDTA. The gel was then stained with 1 μg/ml ethidium bromide for 1 hour and the DNA visualized by UV irradiation. A negative film of the gel was recorded and scanned using an LKB 2400 GelScan XL densitometer. The effect of incubation time on cleavage of pGEM-3Z DNA by TLM S10b and FLM was also determined using equipotent amounts of TLM S10b and FLM (0.05 and 0.62 μM, respectively) by gel electrophoresis as described above.
Equipotent concentrations of TLM S10b and FLM (0.05 and 0.62 μM, respectively) were incubated with form I DNA for 1, 5, 10, 20 and 30 minutes and the percent form I DNA remaining was calculated from densitometric scanning of the band corresponding to form I. Following incubation with FLM for 1 minute, only 6.5% form I DNA remained undegraded (lane 8). In contrast, 74% form I DNA remained intact following incubation with TLM S10b for 1 minute (lane 3) and 10 minutes incubation was required to cleave 95% of form I (lane 5).

A-253 cells [6] = assay: Cell-associated drug by fluorescent spectrophotometry, A-253 cells; details: 1 hour, 37° C.
Protocol: (§5) Exponentially growing A-253, C-10E or C-10E^R cells were harvested and approximately 1.5×10^6 cells were incubated in 200 µl medium at 37° C. for 60 minutes in the presence or absence of 100 μM FLM. Drug incubation was terminated by washing the cells with 3×1 ml of ice-cold PBS, resuspending the cells in 1 ml of 50 mM bicarbonate buffer (pH=9.0) and lysing by sonication (4×5 sec). The cell lysate was centrifuged at 12,000 rpm (Eppendorf Microcentrifuge 5415 C) to remove cellular debris, and the supernatant was filtered through 0.2 μm SPIN-X centrifuge filter unit (Costar, Cambridge, Mass.). The cell-associated fluorescent was measured using a fluorescent spectrophotometer. Autofluorescent associated with cells in the absence of drug treatment was measured and subtracted from the fluorescent value of the drug-treated group.
(§6) To quantify the levels of cell-associated FLM in A253, C-1OE and C-10E^R cell lines, cells were incubated with 100 μM FLM for 1 hour at 37° C. and the cellular fluorescent of the three cell lines were measured by fluorometry.

C-10E cells [7] = assay: Flow cytometric analysis of cellular FLM content, C-10E cells; assay type: cell-based, human
Protocol: (§3) For each analysis, a "control" was included in which each cell line was incubated under identical conditions in the absence of FLM. […] Cells were then suspended in 100 μl PBS, fixed with 2% paraformaldehyde in 100 μl PBS and analyzed by flow cytometry using a Becton-Dickinson FAC Star. Analysis was done using a 2 W laser tuned in at 488 nm at an output strength of 200 mW. The band pass filter range =530/30. The total number of cells analyzed was 5,000.
(§4) The cell diameter as measured by Coulter counter was similar for all the three cell lines ([…]).

C-10E^R cells [8] = assay: Cell-associated drug by fluorescent spectrophotometry, C-10E^R cells; assay type: cell-based, human; details: 100 μM FLM, 1 hour, 37° C., fluorometry
Protocol: as §5, §6

C-10E cells [9] = assay: Cell-associated drug by fluorescent spectrophotometry, C-10E cells; assay type: cell-based, human
Protocol: as §5, §6

C-10E^R cells [10] = assay: Flow cytometric analysis of cellular FLM content, C-10E^R cells; assay type: cell-based, human
Protocol: as §3, §4

A-253 cells [11] = assay: Flow cytometric analysis of cellular FLM content, A-253 cells; assay type: cell-based, human; details: 100 μM FLM, 60 minutes, 37° C.
Protocol: as §3, §4

[12] = A-253 cells, continuous exposure

IC50 [1]: 500 ± 20 nM | relative fluorescent units [3]: 2.1 relative fluorescent units
Compound: Cc1c(N)nc([C@H](CC(N)=O)NC[C@H](N)C(N)=O)nc1C(=O)N[C@H](C(=O)N[C@H](C)[C@@H](O)[C@H](C)C(=O)N[C@H](C(=O)NCCc1nc(-c2nc(C(=O)NCCCN(C)CCCN(Cc3ccc(OCc4ccccc4)c(OCc4ccccc4)c3)Cc3ccc(OCc4ccccc4)c(OCc4ccccc4)c3)cs2)cs1)[C@@H](C)O)[C@@H](O[C@@H]1O[C@@H](CO)[C@@H](O)[C@H](O)[C@@H]1O[C@H]1O[C@H](CO)[C@@H](O)[C@H](OC(N)=O)[C@@H]1O)c1cnc[nH]1 [LBM, liblomycin, reference compound]
IC50 (C-10E cells [2]): 570 ± 20 nM | resistance index C-10E (C-10E cells [2]): 1.1

Compound: Cc1c(N)nc([C@H](CC(N)=O)NC[C@H](N)C(N)=O)nc1C(=O)N[C@H](C(=O)N[C@H](C)[C@@H](O)CC(=O)N[C@H](C(=O)NC(O[C@@H]1O[C@@H](C)[C@@H](N)[C@@H](O)[C@H]1O)C(O)c1nc(-c2nc(C(=O)NCCCCN)cs2)cs1)[C@@H](C)O)[C@@H](O[C@@H]1O[C@@H](CO)[C@@H](O)[C@H](O)[C@@H]1O[C@H]1O[C@H](CO)[C@@H](O)[C@H](OC(N)=O)[C@@H]1O)c1cnc[nH]1 (stereo partly drawn) [TLM S10b, talisomycin S10b, reference compound]
IC50 [1]: 50 ± 2.3 nM | resistance index C-10E ® (C-10E^R cells [4]): 8 | IC50 (C-10E^R cells [4]): 410 ± 9 nM | form I DNA remaining undegraded ([5]; 0.05 μM drug, 20 minutes, stoichiometric Fe(II)): 21.1% | incubation required to cleave 95% of form I DNA ([5]; TLM S10b 0.05 μM): 10 min | form I DNA remaining after 1 minute incubation [5]: 74% | fold resistance of C-10E cells (C-10E cells [2]): 40- to 50 fold | IC50 (C-10E cells [2]): 2700 ± 23 nM | resistance index C-10E (C-10E cells [2]): 54 | relative fluorescent units [3]: 2.6 relative fluorescent units

IC50 [1]: 1250 ± 80 nM | IC50 value times higher than TLM S10b or BLM A2 ([1]; growth inhibition assay): 25-30 times | relative fluorescent units [3]: 836 relative fluorescent units | fluorescent quantum yield ([3]; 50 mM bicarbonate buffer (pH=9.0), excited at 497 nm, emission maximum 523 nm): 0.71 | fluorescent intensity times greater than that of BLM A2, TLM S10b and LBM ([3]; equimolar solutions): 300 to 400 times
Compound: fluoromycin [FLM]
fold difference in drug accumulation, FLM vs BLM A2 (A-253 cells [6]; 50 μM): ~2 fold | cell-associated FLM (A-253 cells [6]; 100 μM FLM, fluorometry): 246 pmol/106 cells | cell-associated drug, comparison of BLM A2 and FLM (A-253 cells [6]; 100 μM drug): 255 pmol/10^6 cells | cell-associated FLM fold higher than for BLM A2 (A-253 cells [6]; 100 μM): approximately 2.5 fold | times less potent than BLM A2 (antiproliferative potency) [1, 12]: 33 times | times less potent than TLM S10b (antiproliferative potency) [1, 12]: 25 times | mean fluorescent channel number (mean FL1) (C-10E cells [7]; C-10E cells, 100 μM FLM, 60 minutes, 37° C.): 61 | fold difference in fluorescent intensity, C-10E lower than A-253 cells (C-10E cells [7]; flow cytometry of FLM content): 4 fold | cell-associated FLM (C-10E^R cells [8]): 167 pmol/10^6 cells | cell-associated FLM (C-10E cells [9]; C-10E cells, 100 μM FLM, 1 hour, 37° C., fluorometry): 123 pmol/10^6 cells | fold difference in cell-associated FLM, C-10E lower than A-253 cells (C-10E cells [9]; fluorescent spectrophotometry): 2 fold | mean fluorescent channel number (mean FL1) (C-10E^R cells [10]; C-10E^R cells, 100 μM FLM, 60 minutes, 37° C.): 122 | fold lower fluorescent intensity, C-10E^R compared to A-253 cells (C-10E^R cells [10]; flow cytometry of FLM content): 2 fold | resistance index C-10E ® (C-10E^R cells [4]): 18 | IC50 (C-10E^R cells [4]): 22000 ± 1100 nM | form I DNA remaining after 1 minute incubation [5]: 6.5% | rate of DNA cleavage relative to TLM S10b ([5]; equipotent doses compared directly): approximately 10 times | times less potent than TLM S10b in DNA cleavage ([5]; metal-free FLM, stoichiometric Fe(II), 20 minutes): 12 times | cleavage of plasmid DNA in vitro ([5]; result in words): able to cleave form I DNA; also recorded: cleaves pGEM-3Z plasmid DNA in vitro in a concentration-dependent manner | fold resistance of C-10E cells (C-10E cells [2]): 50 fold | IC50 (C-10E cells [2]): 66000 ± 1700 nM | resistance index C-10E (C-10E cells [2]): 53 | mean fluorescent channel number (mean FL1) (A-253 cells [11]): 250

Source: patent US5420228A, “Fluorescent-labelled bleomycin analogues” (University of Pittsburgh of the Commonwealth System of …, priority 1994, dated 1995)
